Assay results taken from article PMC10882719 (Frontiers in Neuroscience, 2024).
Read-outs that look alike come from different tables or passages of the source.

How the values were obtained:
Assay type in all cases: cell-based
168 GPCRs [1] = target: T1, 168 GPCRs (Homo sapiens, UniProt P14416); conditions: DRD2L
T1 construct: host or cells: PathHunter cell lines

168 GPCRs [2] = target: T2, 168 GPCRs (Homo sapiens, UniProt P30518)
T2 construct: host or cells: PathHunter cell lines

168 GPCRs [3] = target: T3, 168 GPCRs (Homo sapiens, UniProt P30939); conditions: HTR1F
T3 construct: host or cells: PathHunter cell lines
T3 sequence (P30939 1-366): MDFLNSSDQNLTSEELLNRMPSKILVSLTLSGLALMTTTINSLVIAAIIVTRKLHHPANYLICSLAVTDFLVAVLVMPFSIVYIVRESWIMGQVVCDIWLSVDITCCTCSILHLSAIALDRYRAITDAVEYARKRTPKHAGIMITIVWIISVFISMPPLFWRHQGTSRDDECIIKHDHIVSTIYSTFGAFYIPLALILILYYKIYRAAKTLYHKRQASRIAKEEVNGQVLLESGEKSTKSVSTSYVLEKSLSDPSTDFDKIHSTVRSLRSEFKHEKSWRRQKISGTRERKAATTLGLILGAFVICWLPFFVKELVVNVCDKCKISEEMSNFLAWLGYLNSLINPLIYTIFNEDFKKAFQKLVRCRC

168 GPCRs [4] = target: T4, 168 GPCRs (Homo sapiens, UniProt P41586)
T4 construct: host or cells: PathHunter cell lines
T4 sequence (P41586 21-468): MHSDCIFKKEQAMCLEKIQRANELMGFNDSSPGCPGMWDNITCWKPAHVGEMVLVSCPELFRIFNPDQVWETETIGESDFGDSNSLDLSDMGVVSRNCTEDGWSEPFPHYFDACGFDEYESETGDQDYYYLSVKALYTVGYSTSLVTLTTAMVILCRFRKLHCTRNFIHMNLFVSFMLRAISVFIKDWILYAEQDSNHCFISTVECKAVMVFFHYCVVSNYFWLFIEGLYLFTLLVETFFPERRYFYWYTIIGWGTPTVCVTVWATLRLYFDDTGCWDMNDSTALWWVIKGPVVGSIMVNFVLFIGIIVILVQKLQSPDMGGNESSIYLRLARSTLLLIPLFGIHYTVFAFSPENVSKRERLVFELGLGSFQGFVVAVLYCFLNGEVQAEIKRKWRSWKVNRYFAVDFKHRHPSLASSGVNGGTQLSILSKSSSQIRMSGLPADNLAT

168 GPCRs [5] = target: T5, 168 GPCRs (Homo sapiens, UniProt P46663)
T5 construct: host or cells: PathHunter cell lines
T5 sequence (P46663 1-353): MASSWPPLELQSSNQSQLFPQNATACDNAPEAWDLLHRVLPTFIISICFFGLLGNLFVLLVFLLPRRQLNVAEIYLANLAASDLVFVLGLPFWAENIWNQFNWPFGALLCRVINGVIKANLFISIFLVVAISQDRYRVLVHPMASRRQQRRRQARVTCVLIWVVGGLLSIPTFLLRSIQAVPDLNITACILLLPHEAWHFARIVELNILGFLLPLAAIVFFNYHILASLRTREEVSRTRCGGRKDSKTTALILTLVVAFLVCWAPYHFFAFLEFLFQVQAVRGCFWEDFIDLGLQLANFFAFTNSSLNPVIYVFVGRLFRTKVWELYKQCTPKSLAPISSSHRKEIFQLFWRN

168 GPCRs [6] = target: T6, 168 GPCRs (Homo sapiens, UniProt P49146); conditions: NPY2R
T6 construct: host or cells: PathHunter cell lines
T6 sequence (P49146 1-381): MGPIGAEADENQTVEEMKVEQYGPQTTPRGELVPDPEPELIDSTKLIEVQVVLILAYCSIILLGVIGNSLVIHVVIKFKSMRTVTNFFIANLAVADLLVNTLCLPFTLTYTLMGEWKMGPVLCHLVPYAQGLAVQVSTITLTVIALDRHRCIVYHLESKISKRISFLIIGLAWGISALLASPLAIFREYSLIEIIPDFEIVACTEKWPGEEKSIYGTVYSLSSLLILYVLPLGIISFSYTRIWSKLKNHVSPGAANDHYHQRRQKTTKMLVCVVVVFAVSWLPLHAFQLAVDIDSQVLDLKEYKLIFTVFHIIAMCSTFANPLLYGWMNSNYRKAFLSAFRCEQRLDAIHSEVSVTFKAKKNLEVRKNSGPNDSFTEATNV

168 GPCRs [7] = system: 168 GPCRs

T2 sequence (P30518 whole entry): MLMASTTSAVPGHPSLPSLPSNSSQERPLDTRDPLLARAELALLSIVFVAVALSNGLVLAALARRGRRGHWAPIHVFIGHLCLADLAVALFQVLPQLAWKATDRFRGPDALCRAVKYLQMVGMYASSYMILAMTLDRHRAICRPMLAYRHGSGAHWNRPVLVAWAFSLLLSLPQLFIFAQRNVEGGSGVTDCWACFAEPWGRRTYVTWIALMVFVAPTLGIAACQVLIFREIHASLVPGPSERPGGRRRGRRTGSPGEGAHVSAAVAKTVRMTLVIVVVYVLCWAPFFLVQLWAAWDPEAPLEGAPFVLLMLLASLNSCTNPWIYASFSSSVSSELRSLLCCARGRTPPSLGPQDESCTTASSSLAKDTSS
T1 sequence (P14416 whole entry): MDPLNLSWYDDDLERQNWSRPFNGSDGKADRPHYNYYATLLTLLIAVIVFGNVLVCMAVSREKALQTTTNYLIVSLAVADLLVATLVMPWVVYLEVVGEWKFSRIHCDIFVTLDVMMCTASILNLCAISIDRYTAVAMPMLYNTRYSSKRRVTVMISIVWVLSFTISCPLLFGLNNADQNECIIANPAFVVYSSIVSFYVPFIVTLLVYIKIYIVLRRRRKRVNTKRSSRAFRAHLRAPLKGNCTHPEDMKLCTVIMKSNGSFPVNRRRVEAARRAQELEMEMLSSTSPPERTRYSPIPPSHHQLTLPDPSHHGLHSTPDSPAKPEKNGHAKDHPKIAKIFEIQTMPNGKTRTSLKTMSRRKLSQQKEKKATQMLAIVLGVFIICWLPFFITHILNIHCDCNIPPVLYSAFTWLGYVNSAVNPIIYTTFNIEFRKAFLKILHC

Structure (SMILES) | % Agonist Activity (168 GPCRs [1]; 1 uM) [%] | % Antagonist Activity (168 GPCRs [1]; 1 uM) [%] | % Agonist Activity (168 GPCRs [1]; 10 uM) [%] | % Antagonist Activity (168 GPCRs [1]; 10 uM) [%] | % Agonist Activity (168 GPCRs [2]; AVPR2, 1 uM) [%] | % Antagonist Activity (168 GPCRs [2]; AVPR2, 1 uM) [%] | % Agonist Activity (168 GPCRs [2]; AVPR2, 10 uM) [%] | % Antagonist Activity (168 GPCRs [2]; AVPR2, 10 uM) [%] | % Agonist Activity (168 GPCRs [3]; 1 uM) [%] | % Antagonist Activity (168 GPCRs [3]; 1 uM) [%] | % Agonist Activity (168 GPCRs [3]; 10 uM) [%] | % Antagonist Activity (168 GPCRs [3]; 10 uM) [%] | % Agonist Activity (168 GPCRs [4]; ADCYAP1R1, 1 uM) [%] | % Antagonist Activity (168 GPCRs [4]; ADCYAP1R1, 1 uM) [%] | % Agonist Activity (168 GPCRs [4]; ADCYAP1R1, 10 uM) [%] | % Antagonist Activity (168 GPCRs [4]; ADCYAP1R1, 10 uM) [%] | % Agonist Activity (168 GPCRs [5]; BDKRB1, 1 uM) [%] | % Antagonist Activity (168 GPCRs [5]; BDKRB1, 1 uM) [%] | % Agonist Activity (168 GPCRs [5]; BDKRB1, 10 uM) [%] | % Antagonist Activity (168 GPCRs [5]; BDKRB1, 10 uM) [%] | other results
CNC(C)Cc1ccc2c(c1)OCO2 (stereo not drawn) [MDMA, 3,4-Methylenedioxy methamphetamine, reference compound] | 3.3 | 4.8 | 2.6 | 11.7 | -2.9 | -7.8 | -2.2 | -0.4 | 10.9 | 14.6 | 8.5 | 10.8 | -0.3 | -0.9 | -0.8 | -0.1 | -1.2 | -17.1 | -0.2 | -12.7 | % Agonist Activity (168 GPCRs [6]; Conc 1 uM): -0.1%; % Antagonist Activity (168 GPCRs [6]; Conc 1 uM): 12%; % Agonist Activity (168 GPCRs [6]; Conc 10 uM): 0.2%; % Antagonist Activity (168 GPCRs [6]; Conc 10 uM): 4.8%; % Agonist Activity (168 GPCRs [7]; DRD2S, 1 uM): 1.6%; % Antagonist Activity (168 GPCRs [7]; DRD2S, 1 uM): 5.8%; % Agonist Activity (168 GPCRs [7]; DRD2S, 10 uM): 1.9%; % Antagonist Activity (168 GPCRs [7]; DRD2S, 10 uM): 14.7%; % Agonist Activity (168 GPCRs [7]; NPSR1B, Conc 1 uM): -3.8%; % Antagonist Activity (168 GPCRs [7]; NPSR1B, Conc 1 uM): 4.3%; % Agonist Activity (168 GPCRs [7]; NPSR1B, Conc 10 uM): -5.1%; % Antagonist Activity (168 GPCRs [7]; NPSR1B, Conc 10 uM): 5%
CNC(C)C(=O)c1ccc2c(c1)OCO2 (stereo not drawn) [methylone] | 0.1 | 1.1 | -0.7 | 0.1 | -0.9 | -2.7 | 1 | -14.8 | -4.4 | 14.4 | -3 | 9.2 | -4 | 13.6 | -3 | 12.5 | -1.7 | 2.8 | -2.5 | 12.1 | % Agonist Activity (168 GPCRs [6]; Conc 1 uM): -0.1%; % Antagonist Activity (168 GPCRs [6]; Conc 1 uM): 2.3%; % Agonist Activity (168 GPCRs [6]; Conc 10 uM): 0.2%; % Antagonist Activity (168 GPCRs [6]; Conc 10 uM): 2%; Agonist activity at any of 168 GPCRs (168 GPCRs [7]; 1 or 10 μM, threshold 30% activity): no significant agonist activity; Antagonist activity at any GPCR (168 GPCRs [7]; 1 or 10 μM, threshold 50% inhibition): no significant antagonist activity; % Agonist Activity (168 GPCRs [7]; DRD2S, 1 uM): 0%; % Antagonist Activity (168 GPCRs [7]; DRD2S, 1 uM): 3.6%; % Agonist Activity (168 GPCRs [7]; DRD2S, 10 uM): 0.6%; % Antagonist Activity (168 GPCRs [7]; DRD2S, 10 uM): -11.6%; % Agonist Activity (168 GPCRs [7]; NPSR1B, Conc 1 uM): -1.3%; % Antagonist Activity (168 GPCRs [7]; NPSR1B, Conc 1 uM): -10.6%; % Agonist Activity (168 GPCRs [7]; NPSR1B, Conc 10 uM): 4.8%; % Antagonist Activity (168 GPCRs [7]; NPSR1B, Conc 10 uM): -7.6%
